Values of other authors in US7834015B2, “Pyrrolo[1,2-a] pyrazin-1(2H)-one and pyrrolo[1,2-d][1,2,4]triazin-1(2H)-one derivatives as inhibitors of poly(ADP-ribose)polymerase (PARP)” (Instituto di Ricerche Di Biologia Molecolare P. Angeletti …, priority 2006, dated 2010).

Tested on: ischemia and reperfusion of the heart or skeletal muscle
Details: rabbits

SMILES | reduced infarct size (single injection 1 mg/kg) | reductions in infarct size in the heart (single injection 10 mg/kg, one minute before occlusion or one minute before reperfusion)
Oc1cccc2c(O)nccc12 [1,5-dihydroxyisoquinoline] | 38-48% | 
NC(=O)c1cccc(N)c1 [3-amino-benzamide] |  | 32-42%
